Laboratory results taken from article PMC5890937 (European journal of medicinal chemistry, 2017).
pIC50: −log10 of the molar value. Values joined by “and” are separate entries in the source; they are usually repeats but may differ in a detail not shown here. Equal entries are not always repeated.

How the values were obtained:
[1] = molecular target: T1, HDAC6 (Homo sapiens, UniProt Q9UBN7); assay: ELISA-based HDAC activity assay, HDAC6; type: biochemical; settings: for fold selectivity for HDAC6 and HDAC8 over HDAC1, 2, and 3 / HDAC6 selectivity over HDAC1, 2, and 3: from IC50 values; for isoform selectivity in single concentration screen (HDAC6 versus HDAC1, 2, 3): 1a-f at 0.75, 0.75, 2.5, 1.25, 2.5, and 5 μM, SAHA at 1 μM
T1 sequence (Q9UBN7 1-1215): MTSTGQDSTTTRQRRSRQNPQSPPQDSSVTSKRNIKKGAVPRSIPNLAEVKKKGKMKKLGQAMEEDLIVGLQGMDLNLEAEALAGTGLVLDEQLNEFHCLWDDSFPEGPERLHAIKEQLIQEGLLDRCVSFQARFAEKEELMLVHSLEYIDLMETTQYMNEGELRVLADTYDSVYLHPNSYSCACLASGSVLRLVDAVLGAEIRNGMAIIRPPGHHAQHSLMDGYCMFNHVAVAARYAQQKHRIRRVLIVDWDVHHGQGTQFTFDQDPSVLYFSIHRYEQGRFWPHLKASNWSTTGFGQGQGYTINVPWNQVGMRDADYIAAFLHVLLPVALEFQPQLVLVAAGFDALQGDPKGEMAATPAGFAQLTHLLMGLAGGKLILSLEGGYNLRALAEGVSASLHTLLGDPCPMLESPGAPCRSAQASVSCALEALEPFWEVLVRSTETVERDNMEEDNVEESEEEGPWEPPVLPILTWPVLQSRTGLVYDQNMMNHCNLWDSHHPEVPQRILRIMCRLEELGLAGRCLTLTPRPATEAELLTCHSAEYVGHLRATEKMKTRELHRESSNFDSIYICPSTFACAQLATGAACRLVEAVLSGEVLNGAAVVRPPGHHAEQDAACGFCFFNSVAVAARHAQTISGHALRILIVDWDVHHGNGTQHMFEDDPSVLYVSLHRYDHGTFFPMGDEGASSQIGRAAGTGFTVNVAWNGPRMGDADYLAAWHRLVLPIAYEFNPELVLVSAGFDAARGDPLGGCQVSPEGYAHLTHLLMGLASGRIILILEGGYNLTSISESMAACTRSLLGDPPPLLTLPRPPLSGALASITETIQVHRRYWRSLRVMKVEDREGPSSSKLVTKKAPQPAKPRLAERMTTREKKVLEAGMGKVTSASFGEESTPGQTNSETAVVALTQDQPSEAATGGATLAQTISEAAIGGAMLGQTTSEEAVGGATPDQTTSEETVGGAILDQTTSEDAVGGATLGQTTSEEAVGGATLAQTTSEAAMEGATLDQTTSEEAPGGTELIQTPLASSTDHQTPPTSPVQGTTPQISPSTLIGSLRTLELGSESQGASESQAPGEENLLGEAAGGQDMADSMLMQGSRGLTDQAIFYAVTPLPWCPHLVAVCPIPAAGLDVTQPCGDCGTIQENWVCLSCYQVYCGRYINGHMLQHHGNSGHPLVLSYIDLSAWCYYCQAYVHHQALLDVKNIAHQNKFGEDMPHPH

[2] = test system: HDAC8; settings: read-out: IC50 with HDAC8; cited from earlier work
[3] = test system: HDAC6; settings: cited from earlier work
[4] = test system: HeLa cell lysates; assay: Global HDAC inhibition with HeLa cell lysates; type: biochemical, human; settings: HeLa cell lysates IC50 relative to SAHA
[5] = test system: acetyl-α-tubulin (AcTub); assay: In cellulo selectivity testing, western blot of acetyl-α-tubulin in U937 cells; type: cell-based, human; settings: SAHA 5 μM, 1f 20-60 μM, 18 hours

Q: Which “fold selectivity for HDAC6 and HDAC8 over HDAC1, 2, and 3” value (from here on “fold selectivity for HDAC6 and HDAC8”) [1] does the source give for `O=C(CC[C@@H](CCCC(=O)Nc1ccccc1)Cc1ccccc1)NO` [(R)-1f, (R)-4-benzyl-N^1-hydroxy-N^8-phenyloctanediamide] here?
A: 520- to 1300 fold

Q: With `O=C(CC[C@H](CCCC(=O)Nc1ccccc1)Cc1ccccc1)NO` [(S)-1f, (S)-4-benzyl-N^1-hydroxy-N^8-phenyloctanediamide] as the molecule, how does the “fold selectivity for HDAC6 and HDAC8” value [1] read?
A: 240- to 540 fold

Q: With `O=C(CCCC(CCC(=O)Nc1ccccc1)Cc1ccccc1)NO` (centres unmarked) [C5-benzyl SAHA] as the molecule, how does the pIC50 [2] read?
A: 6.42

Q: What about the HDAC6/8 selectivity [3] of the same molecule?
A: 8- to 21 fold

Q: What about the pIC50 ([3]; read-out: IC50 with HDAC6) of the same molecule?
A: 6.57

Q: Which “isoform selectivity in single concentration screen (HDAC6 versus HDAC1, 2, 3)” value [1] does the source give for `CC(CCCC(=O)Nc1ccccc1)CCC(=O)NO` (centres unmarked) [Compound 1a, N^1-hydroxy-4-methyl-N^8-phenyloctanediamide] here?
A: smallest difference in potency

Q: And the “fold less potent compared to SAHA” value [4]?
A: 18 fold

Q: What does the source list for `CCCCCCC(CCCC(=O)Nc1ccccc1)CCC(=O)NO` (centres unmarked) [Compound 1d, 4-hexyl-N^1-hydroxy-N^8-phenyloctanediamide]?
A: HDAC6 selectivity over HDAC1, 2, and 3 [1]: at least 210 fold; fold selectivity for HDAC6 and HDAC8 over HDAC1, 2, and 3 [1]: 170- to 480 fold and 210- to 480 fold

Q: With `O=C(CCC(CCCC(=O)Nc1ccccc1)Cc1ccccc1)NO` (centres unmarked) [Compound 1f, 4-benzyl-N^1-hydroxy-N^8-phenyloctanediamide] as the molecule, how does the “isoform selectivity in single concentration screen (HDAC6 versus HDAC1, 2, 3)” value [1] read?
A: greatest difference in potency

Q: What about the “HDAC6 selectivity over HDAC1, 2, and 3” value [1] of the same molecule?
A: at least 210 fold

Q: What about the “fold selectivity for HDAC6 and HDAC8” value [1] of the same molecule?
A: 210- to 740 fold

Q: And the “levels of acetyl-α-tubulin (HDAC6 substrate)” value [5]?
A: dose-dependent increase

Q: For `CCCC(CCC)C(=O)NO` [Valpropylhydroxamic acid], which “selectivity for HDAC6 and 8 against HDAC1, 2, and 3” value [3] is on record?
A: 9-17 fold
